# Paper PMC7058665, “GPU-Accelerated Discovery of Pathogen-Derived Molecular Mimics of a T-Cell Insulin Epitope” (Frontiers in Immunology, 2020)
# Where no end group is shown, it is not given here.
# Tested on: InsB4 T-cell clone
# Type: cell-based, human
# Conditions: not given
# 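Note: T-cell clone rested overnight in 5% FBS medium, then cultured overnight with peptide titrations, MIP-1β released into supernatant measured by ELISA.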
row,Compound,EC50 [nM]
1,ALVENQFLL,2200
2,EMLERGLLV,1600
3,FILEGILTV,54
4,FLIEGVLTI,55
5,FLTEWILPL,5800
6,FLVEQVLFA,3300
7,IITEGIMTL,5900
8,IIVEDSLLV,1.1
9,ILIEGILFF,0.92
10,ILIERGLTF,79000
11,ILLENGYLL,600
12,IMYEGLLFV,70
13,ITIERILTI,1800
14,IVLEGAMIV,130
15,LIEERSPLI,6100
16,LILERSPTA,13000
17,LILQGVLTM,2600
18,LLEENSPML,50
19,LLIENFVTG,5600
20,LLIIGGLLF,290
21,LLLERMFLF,1400
22,LLLERYFLA,66

row,Compound,EC50 [nM]
1,LLVEDLLVL,200
2,LLVEGALTG,640
3,LLVEGAMTV,42
4,LLVENWPLL,2.4
5,LLVERQLVL,6600
6,LMLENLLTF,2200
7,LMLERGFII,950
8,LMVENVPFA,0.052
9,LQVEGAMSV,240
10,LQVENYLPI,27
11,LQVIRILLA,2600
12,LTVEGIFRV,1600
13,LVLEDILLA,1400
14,MIVEGFLLL,59
15,MIVENVPLL,0.17
16,MLIEGVLTV,10
17,MLIERVMST,5600
18,MLVEEGLLV,97
19,MLVEGVLLA,55
20,MLVEWALVA,54
21,MLYENWLLS,1900
22,MQLENGLLL,6.3

# Same assay, conditions: 20 top-scoring fungal peptides, Figure 8; overnight, MIP-1β ELISA; NR = no T-cell response; read-out: EC50 of peptide activation of InsB4
row,Compound,EC50 [nM]
1,CC(C)C[C@H](NC(=O)[C@H](C)NC(=O)[C@H](CCC(=O)O)NC(=O)[C@@H](NC(=O)[C@H](CC(C)C)NC(=O)[C@@H](N)Cc1c[nH]cn1)C(C)C)C(=O)N[C@@H](Cc1ccc(O)cc1)C(=O)N[C@@H](CC(C)C)C(=O)N[C@H](C(=O)O)C(C)C [reference compound],1100
2,FLLERILIV,960
3,ILVERALFT [top-scoring fungal peptide],> 10000
4,IMLENGPFL [top-scoring fungal peptide],> 10000
5,IQLENSLFA,8900
6,LIIEWIFFL,150
7,LIIEWYLIM,860
8,LILENYMFA,880
9,LLVEDMLLM,390
10,LQLEGQLLL,3900
11,LVVEGSLFV,340
12,MIIEGFLLI,130
13,MLLEGMMIV,110
14,MQVEWILTF,12000

# Same assay, conditions: overnight, MIP-1β ELISA
row,Compound,agonist activity on InsB4 in words (relative to index HLVEALYLV)
1,"ILLEGILIL [bacterial protein-derived nonamer peptide, Bin 2]",most potent
